Data set [1] is described as follows: hMics binding. Format: in vitro ADME. The settings on record: human microsomes; read-out: hMics binding % bound (converted).
The nature of data set [2]: rMics binding. Format: in vitro ADME. As to conditions: rat microsomes; read-out: rMics binding % bound (converted).
The nature of data set [3]: hPPB. Format: in vitro ADME. As to conditions: human plasma protein binding; read-out: hPPB % bound (converted).
Data set [4] can be described thus: rPPB. In kind it is in vitro ADME. The settings on record: rat plasma protein binding; read-out: rPPB % bound (converted).
Data set [5] is described as follows: In vivo rat PK. As to conditions: for clearance: iv, read-out: In vivo rat PK CL (i.v.); for Cmax / bioavailability / half-life: po; for bioavailability: read-out: In vivo rat PK F %; for half-life: read-out: In vivo rat PK T½ (p.o.) (converted). The text has this:
The experiment was repeated for three times and the mean value was taken.

Data set [6] relates to ICR mice. As to the kind of experiment: immobility time of forced swimming in mice. Format: in vivo. The settings on record: i.p. Here is the method: (§1) Animals used for experiments were adult male ICR mice weighing 18˜25 g, housed in 8 pcs/cages, regulated with a 12/12 hour light/dark cycle, maintained at a constant temperature of 23±1° C. and a humidity of 50˜60% and allowed ad libitum access to rodent chow and water. After animals were purchased from the experimental animal center and performed an adaptive housing, the experiment was allowed to start.
(§2) After animal adaptive housing, all the animals were randomly divided into three groups:
(§3) Group one: negative control group, intraperitoneally injected with 1% DMSO in physiological saline (10.0 ml/kg, i.p.);
Group two: experimental drug group, the mice were intraperitoneally injected respectively with different doses of test compound Co. 3: 0.1, 0.5, 1, 5 and 10 mg/kg, i.p., the drug was formulated in 1% DMSO in physiological saline;
(§4) Group three: positive drug control group, the mice were intraperitoneally injected with Desipramine (20 mg/kg, i.p., the drug was formulated in 1% DMSO in physiological saline).
The mice were placed in a large beaker with a height of about 40 cm and an internal diameter of about 19 cm, loaded with water with a temperature of 24˜25° C. inside. The water level reached 22 cm height (Porsolt et al., 1977). […] 30 minutes, or 60 minutes later, the mice were placed into a beaker loaded with water, and immobility time of animals within 5 minutes was measured. […]

For data set [7] the following is noted: from Zhao, Chinese Journal of Psychiatry, Vol. 35, No. 4; cited from earlier work.
In data set [8] the test system is ICR mice. Put plainly: immobility time of tail suspension in mice. In kind it is in vivo. As to conditions: i.p.; for immobility time of tail suspension in mice: 60 minutes after dosing. Here is the method: as §1, §2, §3
Group two: experimental drug group, the mice were intraperitoneally injected respectively with different doses of the test compound Co. 1: 0.1, 0.5, 1, 5 and 10 mg/kg, i.p., the drug was formulated in 1% DMSO in physiological saline;
as §4
The experiment employed Shanghai Jiliang animal behavior video analysis system, wherein the experimental environment was kept absolutely silent, when grabbing animals and administrating, movements were gentle to minimize adverse reactions of mental condition and emotion brought by external stimulus. 60 minutes after dosing, the site 20 mm from the tail end was fixed and the mice were hung upside-down in an activity box for 6 minutes. The immobility time in later 4 minutes was analyzed.

In data set [9] the test system is ICR mice. As to the kind of experiment: spontaneous activity in mice. Format: in vivo. The settings on record: each test dose (0.1, 0.5, 1, 5 and 10 mg/kg, i.p.); 60 minutes after dosing; P>0.05 compared with negative control. Here is the method:
as §1, §2, §3
Group two: experimental drug group, the mice were intraperitoneally injected respectively with different doses of test compound Co. 1: 0.1, 0.5, 1, 5 and 10 mg/kg, i.p., the drug was formulated in 1% DMSO in physiological saline. […]
The experiment employed Shanghai Jiliang animal behavior video analysis system, wherein the experimental environment was kept absolutely silent, when grabbing animals and administrating, movements were gentle to minimize adverse reactions of mental condition and emotion brought by external stimulus. […] The spontaneous activity box was connected to a recording apparatus and the activity conditions of mice within 30-60 minutes were recorded. The effects of drug or control substances on spontaneous activity in mice were determined.

This is an account of results in patent publication US20140343089A1, “NOREPINEPHRINE AND SELECTIVE SEROTONIN RECEPTOR BLOCKER AND USE THEREOF” (priority 2011, published 2014).

What is called Cmax is the maximum level reached in the sampled fluid or tissue. As to `CN1CCN2c3ncccc3Cc3ccccc3C2C1` (stereo not drawn) [Mirtazapine, reference compound], the fraction unbound in [1] is 0.69; in data set [2], 0.79; in data set [3], 0.2; in data set [4] it was 0.11. In data set [5], the clearance turned out to be 101 mL/min/kg. In data set [5], this compound displayed a Cmax of 30 ng/mL. Further, in data set [5], the bioavailability turned out to be 14%.
On to `CCN1C[C@@H]2c3ncc(C)cc3Oc3cc(F)c(C)cc3[C@@H]2C1` [Co. 3], for which, in data set [6] (0.5, 1.0, 5.0 and 10 mg/kg, P<0.05-0.01 compared to the negative control group), the “immobility time of forced swimming in mice” value is given as “significantly extended”. For the same compound, in data set [6] (Desipramine 20 mg/kg, P<0.05), the “effect on immobility time of forced swimming compared to positive drug Desipramine” value is “stronger”.
With `CN1C[C@@H]2c3ncccc3Oc3ccccc3[C@@H]2C1` [Co. 2], the fraction unbound in data set [3] was 0.45. Further, in [4], the fraction unbound is 0.63. Further, in [5], the clearance was determined as 139 mL/min/kg, the highest level (Cmax) was 17 ng/mL, the bioavailability stood at 12% and the half-life is 8.9 h.
Take `c1ccc2c(c1)Cc1cccnc1N1CCNCC21` (stereo not drawn) [Demethylated mirtazapine]: the “share of the drug activity of mirtazapine” value in data set [7] is on record as 3%-10%.
In the case of `CN1C[C@@H]2c3ncccc3Oc3cc(Cl)ccc3[C@@H]2C1` [Co. 1], the “immobility time of tail suspension in mice” value in [8] (0.1 and 0.5 mg/kg) is given as “no effect”; in data set [8] (1.0, 5.0 and 10 mg/kg, P<0.05-0.01 compared to the negative control group), “significantly inhibited”. For the same compound, in data set [8] (Desipramine 20 mg/kg), the “inhibitory effect on the immobility time of tail suspension compared to positive drug Desipramine” value is recorded as “similar”. Also, the “spontaneous activity in mice” value in [9] is “no significant effect”. Moreover, the figures for the fraction unbound in data set [3] and in data set [4] were 0.13 and 0.2, respectively. This compound also came in with a maximum concentration (Cmax) in data set [5] of 51 ng/mL. Moreover, in data set [5], the half-life is 4.6 h.
